# Test results as given in article PMC3508718 (Clinical pharmacokinetics, 2012).
# Like-named read-outs stand apart in the source and are kept apart here.
# How the values were obtained:
# [1] = Model-predicted AUCτ in BP and CVF and CVF:BP AUC ratios; assay type: in vivo, HIV-infected pre-menopausal women
# [2] = female, human, in vivo
# wild-type HIV virus = conditions: cited from earlier work
# [3] = non-compartmental analysis; ref [13]; cited from earlier work
# [4] = Population pharmacokinetic co-modelling of blood plasma; conditions: female, human
# [5] = cited from earlier work
# [6] = female, human, in vivo, CVF AUCτ:BP AUCτ ratio
# [7] = female, human, in vivo, CVF AUCτ:BP fAUCτ ratio
# [8] = first dose, median (25th, 75th percentiles), model-predicted
# [9] = multiple dose, median (25th, 75th percentiles), model-predicted
compound,measurement,setting,value
"COC(=O)N[C@H](C(=O)N[C@@H](Cc1ccccc1)[C@@H](O)CN(Cc1ccc(-c2ccccn2)cc1)NC(=O)[C@@H](NC(=O)OC)C(C)(C)C)C(C)(C)C [Atazanavir, atazanavir]",AUC,"[1]; female, human, in vivo, BP AUCτ, first dose, median (25th, 75th percentiles), model-predicted",25.3 ng·h/mL
same,AUC,"[1]; female, human, in vivo, BP AUCτ, multiple dose, median (25th, 75th percentiles), model-predicted",54.6 ng·h/mL
same,AUC,"[1]; female, human, in vivo, CVF AUCτ, first dose, median (25th, 75th percentiles), model-predicted",5.66 ng·h/mL
same,AUC,"[1]; female, human, in vivo, CVF AUCτ, multiple dose, median (25th, 75th percentiles), model-predicted",5.53 ng·h/mL
same,Kp,[1]; [6],0.299
same,Kp,[1]; [7],2.14
same,BP fAUCτ (unbound),[1]; [8],"3.55 (0.867, 6.15) μg•h/L"
same,BP fAUCτ (unbound),[1]; [9],"7.64 (1.61, 9.54) μg•h/L"
same,"ka,FD (first-order absorption rate constant, first dose)",[2],0.879 (79.5) [29.0] h^−1
same,"tauFD (transit compartment transfer rate constant BP to CVF, first dose)",[2],0.773 (145) [52.8] h^−1
same,"tauMD (transit compartment transfer rate constant BP to CVF, multiple dose)",[2],1.41 (216) [85.2] h^−1
same,IC50 (concentration producing 50 % inhibition of wild-type HIV virus),wild-type HIV virus; ref [15],11 ng/mL
same,penetration / exposure in CVF relative to BP (in words),[3],moderately penetrative
same,Vd,[4]; in vivo,10.4 L
"O=C1Nc2ccc(Cl)cc2[C@@](C#CC2CC2)(C(F)(F)F)O1 [Efavirenz, efavirenz]",AUC,"[1]; female, human, CVF, oral, CVF AUCτ, multiple dose, median (25th, 75th percentiles), model-predicted",0.262 ng·h/mL
same,AUC,"[1]; female, human, cervicovaginal fluid, oral, CVF AUCτ, first dose, median (25th, 75th percentiles), model-predicted",0.0127 ng·h/mL
same,CVF AUCτ:BP fAUCτ ratio,"[1]; female, human, in vivo","0.527 (0.298, 1.28)"
same,Kp,[1]; [6],0.00527
same,AUC,"[1]; female, human, plasma, oral, BP AUCτ, first dose, median (25th, 75th percentiles), model-predicted",24.5 ng·h/mL
same,AUC,"[1]; female, human, plasma, oral, BP AUCτ, multiple dose, median (25th, 75th percentiles), model-predicted",46.7 ng·h/mL
same,BP fAUCτ (unbound),[1]; [8],"0.245 (0.161, 0.303) μg•h/L"
same,BP fAUCτ (unbound),[1]; [9],"0.470 (0.339, 1.06) μg•h/L"
same,"ka,FD (first-order absorption rate constant, first dose)",[2],1.75 (52.7) [18.9] h^−1
same,"ka,MD (first-order absorption rate constant, multiple dose)",[2],0.945 (139) [54.0] h^−1
same,"tauFD (transit compartment transfer rate constant BP to CVF, first dose)",[2],0.866 (208) [77.5] h^−1
same,"tauMD (transit compartment transfer rate constant BP to CVF, multiple dose)",[2],0.383 (156) [55.8] h^−1
same,estimated fu (protein-unbound fraction in blood),"[5]; used in the model to control drug transfer into CVF, ref [14]–[17]",0.01
same,IC50 (concentration producing 50 % inhibition of wild-type HIV virus),wild-type HIV virus; ref [36],0.51 ng/mL
same,penetration / exposure in CVF relative to BP (in words),[3],very low penetration into CVF
same,Vd,"[4]; cervicovaginal fluid, oral",2.55 L
"Nc1ccn([C@@H]2CS[C@H](CO)O2)c(=O)n1 [Lamivudine, lamivudine]",CVF AUCτ,"[1]; female, human, in vivo, 150 mg","10.0 (6.07, 48.9) μg•h/L"
same,AUC,"[1]; female, human, in vivo, 150 mg, BP AUCτ",3.86 ng·h/mL
same,AUC,"[1]; female, human, in vivo, 300 mg, BP AUCτ",10.1 ng·h/mL
same,AUC,"[1]; female, human, in vivo, 300 mg, CVF AUCτ",62.2 ng·h/mL
same,protein binding,[5]; ref [17],40%
"C[C@H](Cn1cnc2c(N)ncnc21)OCP(=O)(O)O [Tenofovir, tenofovir]",BP fAUCτ (unbound),"[1]; female, human, in vivo","2.38 (1.59, 4.35) μg•h/L"
same,AUC,"[1]; female, human, in vivo, BP AUCτ",2.56 ng·h/mL
same,AUC,"[1]; female, human, in vivo, CVF AUCτ",4.18 ng·h/mL
same,Kp,[1]; [6],1.57
same,Kp,[1]; [7],1.68
same,"ka,FD (first-order absorption rate constant, first dose)",[2],1.72 (61.1) [99.8] h^−1
same,"ka,MD (first-order absorption rate constant, multiple dose)",[2],1.05 (69.8) [30.0] h^−1
same,kg12 (transfer rate constant from CVF compartment 1 to 2),[2],0.525 (203) [63.6] h^−1
same,kg21 (transfer rate constant from CVF compartment 2 to 1),[2],0.323 (97.6) [60.7] h^−1
same,"tauFD (transit compartment transfer rate constant BP to CVF, first dose)",[2],1.53 (106) [71.1] h^−1
same,"tauMD (transit compartment transfer rate constant BP to CVF, multiple dose)",[2],1.24 (103) [130] h^−1
same,protein binding,[5]; ref [16],< 7%
